Values quoted from earlier work in patent US9636287B2, “Primecoat compositions for proteinaceous substrates and methods of priming proteinaceous substrates therewith” (Mad River Science, priority 2012, dated 2017).

Test system: EpiDerm Skin Model (normal, human-derived epidermal keratinocytes, NHEK)
Details: MatTek Corporation general guideline groupings, example materials

Molecule | ET-50 | Expected In vivo Irritancy | ET-50 (hrs)
O=[N+]([O-])O [Conc. Nitric Acid, Nitric Acid] | <0.5 h | Severe, probably corrosive | –
CCCCCCCCCCCCOS(=O)(=O)[O-].[Na+] [1% Sodium Dodecyl Sulfate, Sodium Dodecyl Sulfate] | – | Moderate | 0.5-4^ hrs
Triton X-100 [1% Triton X-100] | 4 to 12 h | Moderate to Mild | –
